Assay results published in patent US9498548B2, “Method of using oxidative reductive potential water solution in dental applications” (priority 2005, dated 2016).
Read-outs that look alike come from different tables or passages of the source. Each block holds one molecule with its values, some of them ahead of it.

Tests used:
[1] = tested on: human diploid fibroblasts (HDFs); assay: Cell viability, apoptosis and necrosis by flow cytometry; format: cell-based; conditions: 880 mM
Experimental: HP is known to be toxic to eukaryotic cells, increasing apoptosis and necrosis and reducing cellular viability. […] HDF cultures were obtained from three different foreskins, which were pooled and cryopreserved together for the purpose of this study. Only diploid cells were used for all experiments. […] Simultaneous analyses of these parameters were performed in the same cell populations by flow cytometry using: […] FIG. 4B) Annexin V-FITC and FIG. 4C) Propidium iodide. FIGS. 8A-8C disclose percentage values expressed as mean±SD (n=3).

[2] = tested on: HDFs; conditions: human, 1 month, 5 µM
[3] = Root canal treatment study (irrigation and oral rinses); format: in vivo, patients; conditions: ORP water solution 109 pts; 2.5% SH 129 pts
Text: Acute root canal was defined as an X-ray image showing a periapical lesion in addition to negative vitality and positive percussion clinical tests. Retrospective analysis of paired-cases presenting similar root canal infections between 2002 and 2003 at the same Institution was undertaken for the control group (the “SH” group) (see FIGS. 7A-B).
During the process the ducts were isolated to avoid contamination. The cavity was opened and the root drilled. ORP water solution flush started with the drilling process instead of using water or saline solution. Instrumentation was conducted according to the crown down technique using rotatory NiTi instruments. Instrumentation was done according to the extension of the duct as measured by the X ray. Duct irrigation was conducted with the ORP water solution after using each instrument. […] The duct was dried out with dental paper and occlusion done by lateral condensation with calcium hydroxide and epoxy resin. […] After 30 days, oral rinse once daily indefinitely was recommended.
A standard art-known treatment procedure with sodium hypochlorite (SH) was conducted for root canal treatment in control patients. Particular care was paid to avoid infiltration of the solution to the periapical region during the manipulation. All patients in the control group received ampicilin (500 mg tid) or cephalexin (500 mg bid) for 7 days as well as anti-inflammatory drugs (naproxen 500 mg bid) as necessary.
The demographic characteristics were similar for both groups (FIGS. 7 A & B).

[4] = tested on: murine polychromatic erythrocytes; conditions: for PCE/NCE ratio: bone marrow, cyclophosphamide 8 mg/mL, 12.5 ml/kg i.p. day 2
Experimental: The mammalian in vivo micronucleus test is used for the identification of substances which cause damage to chromosomes or the mitotic apparatus of murine polychromatic erythrocytes. This damage results in the formation of “micronuclei,” intracellular structures containing lagging chromosome fragments or isolated whole chromosomes. […] The positive control mice received a single intraperitoneal injection of cyclophosphamide (8 mg/mL, 12.5 ml/kg) on day 2. All mice were observed immediately after injection for any adverse reactions. […] On day 3, all mice were weighed and terminated.
The femurs were excised from the terminated mice, the bone marrow was extracted, and duplicate smear preparations were performed for each mouse. The bone marrow slides for each animal were read at 40× magnification. The ratio of polychromatic erythrocytes (PCE) to normochromatic erythrocytes (NCE), an index of bone marrow toxicity, was determined for each mouse by counting a total of at least 200 erythrocytes. Then a minimum of 2000 scoreable PCE per mouse were evaluated for the incidence of micronucleated polychromatic erythrocytes. Statistical analysis of the data were done using the Mann and Whitney test (at 5% risk threshold) from a statistical software package (Statview 5.0, SAS Institute Inc., USA).

cells with increased SA-β-Gal expression [2]: 86%
SMILES: OO [HP, hydrogen peroxide]
Cell viability ([1]; 5 min): 55%
Cell viability ([1]; 30 min): 5%

SMILES: [Na+].[O-]Cl [2.5% SH, sodium hypochlorite]
dental losses [3]: Dental losses only occurred in the SH control group
patients with an acute local reaction after root canal treatment [3]: 16 patients
total number of affected teeth [3]: 23

SMILES: O=P1(N(CCCl)CCCl)NCCCO1 (stereo not drawn) [cyclophosphamide]
PCE/NCE ratio ([4]; females): 0.73
PCE/NCE ratio ([4]; males): 0.77
number of polychromatic erythrocytes bearing micronuclei ([4]; males, minimum of 2000 PCE per mouse evaluated): 11.0
